Assay results reported in ChEMBL document CHEMBL3885881, “DrugMatrix”.

Species on record: Rattus norvegicus
Experiment: DrugMatrix - Regimen: Daily Repeat
Assay type: toxicity, organism-based, Sprague-Dawley
Parameters: regimen Daily Repeat, gender Male, age 6-8 weeks
Settings: in vivo, po, route oral GAVAGE, vehicle 100 % WATER; for ABSOLUTE BASOPHIL / ABSOLUTE EOSINOPHIL / ABSOLUTE LYMPHOCYTE / ABSOLUTE MONOCYTE / ABSOLUTE SEGMENTED NEUTROPHIL / BASOPHIL / EOSINOPHIL / ERYTHROCYTE COUNT / HEMATOCRIT / HEMOGLOBIN / LEUKOCYTE COUNT / LYMPHOCYTE / MEAN CORPUSCULAR HEMOGLOBIN / MEAN CORPUSCULAR HEMOGLOBIN CONCENTRATION / MEAN CORPUSCULAR VOLUME / MONOCYTE / NEUTROPHIL / NUCLEATED RED BLOOD CELLS / PLATELET COUNT: tissue Blood; for ALANINE AMINOTRANSFERASE / ALBUMIN / ALKALINE PHOSPHATASE / ASPARTATE AMINOTRANSFERASE / BLOOD UREA NITROGEN / CARBON DIOXIDE / CHLORIDE / CHOLESTEROL / CREATINE PHOSPHOKINASE / CREATININE / GLUCOSE / LACTATE DEHYDROGENASE / LIPASE / PHOSPHORUS / POTASSIUM / SODIUM / TOTAL BILIRUBIN / TOTAL PROTEIN / URIC ACID: tissue Plasma
[1] = 31 mg/kg, 120 h, dose level Low, time 5 day
[2] = 2629 mg/kg, 72 h, dose level High, time 3 day
[3] = 2629 mg/kg, 120 h, dose level High, time 5 day

SMILES: Nc1ccc(S(=O)(=O)Nc2nccs2)cc1 [SULFATHIAZOLE]
- ABSOLUTE BASOPHIL [1]: 0 CELLS/uL
- ABSOLUTE EOSINOPHIL [1]: 44 CELLS/uL
- ABSOLUTE LYMPHOCYTE [1]: 11208.67 CELLS/uL
- ABSOLUTE MONOCYTE [1]: 0 CELLS/uL
- ABSOLUTE SEGMENTED NEUTROPHIL [1]: 914 CELLS/uL
- BASOPHIL [1]: 0%
- EOSINOPHIL [1]: 0.33%
- ERYTHROCYTE COUNT [1]: 5.37 x10E6/uL
- HEMATOCRIT [1]: 32.6%
- HEMOGLOBIN [1]: 12.8 G/DL
- LEUKOCYTE COUNT [1]: 12.17 x10E3/uL
- LYMPHOCYTE [1]: 92%
- MEAN CORPUSCULAR HEMOGLOBIN [1]: 23.87 pg
- MEAN CORPUSCULAR HEMOGLOBIN CONCENTRATION [1]: 39.27 G/DL
- MEAN CORPUSCULAR VOLUME [1]: 60.87 fL
- MONOCYTE [1]: 0%
- NEUTROPHIL [1]: 7.67%
- NUCLEATED RED BLOOD CELLS [1]: 0 /100WBC
- PLATELET COUNT [1]: 967.33 x10E3/uL
- ALANINE AMINOTRANSFERASE [1]: 55 u/L
- ALBUMIN [1]: 3.97 G/DL
- ALKALINE PHOSPHATASE [1]: 332.33 u/L
- ASPARTATE AMINOTRANSFERASE [1]: 80.33 u/L
- BLOOD UREA NITROGEN [1]: 15.33 mg/dL
- CARBON DIOXIDE [1]: 26.67 mmol/L
- CHLORIDE [1]: 101.67 MEQ/L
- CHOLESTEROL [1]: 68.33 mg/dL
- CREATINE PHOSPHOKINASE [1]: 466 u/L
- CREATININE [1]: 0.16 mg/dL
- GLUCOSE [1]: 230.67 mg/dL
- LACTATE DEHYDROGENASE [1]: 161.67 u/L
- LIPASE [1]: 8.33 u/L
- PHOSPHORUS [1]: 12.43 mg/dL
- POTASSIUM [1]: 5.22 MEQ/L
- SODIUM [1]: 142.17 MEQ/L
- TOTAL BILIRUBIN [1]: 0.13 mg/dL
- TOTAL PROTEIN [1]: 5.83 G/DL
- URIC ACID [1]: 1.13 mg/dL
- ABSOLUTE BASOPHIL [2]: 0 CELLS/uL
- ABSOLUTE EOSINOPHIL [2]: 0 CELLS/uL
- ABSOLUTE LYMPHOCYTE [2]: 13130 CELLS/uL
- ABSOLUTE MONOCYTE [2]: 74.67 CELLS/uL
- ABSOLUTE SEGMENTED NEUTROPHIL [2]: 1895.33 CELLS/uL
- BASOPHIL [2]: 0%
- EOSINOPHIL [2]: 0%
- ERYTHROCYTE COUNT [2]: 6.25 x10E6/uL
- HEMATOCRIT [2]: 39.77%
- HEMOGLOBIN [2]: 15.4 G/DL
- LEUKOCYTE COUNT [2]: 15.1 x10E3/uL
- LYMPHOCYTE [2]: 87%
- MEAN CORPUSCULAR HEMOGLOBIN [2]: 24.67 pg
- MEAN CORPUSCULAR HEMOGLOBIN CONCENTRATION [2]: 38.77 G/DL
- MEAN CORPUSCULAR VOLUME [2]: 63.6 fL
- MONOCYTE [2]: 0.67%
- NEUTROPHIL [2]: 12.33%
- NUCLEATED RED BLOOD CELLS [2]: 0.33 /100WBC
- PLATELET COUNT [2]: 1369.33 x10E3/uL
- ALANINE AMINOTRANSFERASE [2]: 62 u/L
- ALBUMIN [2]: 3.93 G/DL
- ALKALINE PHOSPHATASE [2]: 291 u/L
- ASPARTATE AMINOTRANSFERASE [2]: 83 u/L
- BLOOD UREA NITROGEN [2]: 13.33 mg/dL
- CARBON DIOXIDE [2]: 23.67 mmol/L
- CHLORIDE [2]: 105.33 MEQ/L
- CHOLESTEROL [2]: 68.67 mg/dL
- CREATINE PHOSPHOKINASE [2]: 777 u/L
- CREATININE [2]: 0.18 mg/dL
- GLUCOSE [2]: 146.67 mg/dL
- LACTATE DEHYDROGENASE [2]: 269.33 u/L
- LIPASE [2]: 9.33 u/L
- PHOSPHORUS [2]: 12.5 mg/dL
- POTASSIUM [2]: 5.42 MEQ/L
- SODIUM [2]: 148.07 MEQ/L
- TOTAL BILIRUBIN [2]: 0.1 mg/dL
- TOTAL PROTEIN [2]: 5.7 G/DL
- URIC ACID [2]: 2.33 mg/dL
- ABSOLUTE BASOPHIL [3]: 0 CELLS/uL
- ABSOLUTE EOSINOPHIL [3]: 30.33 CELLS/uL
- ABSOLUTE LYMPHOCYTE [3]: 11698 CELLS/uL
- ABSOLUTE MONOCYTE [3]: 241.67 CELLS/uL
- ABSOLUTE SEGMENTED NEUTROPHIL [3]: 1363.33 CELLS/uL
- BASOPHIL [3]: 0%
- EOSINOPHIL [3]: 0.33%
- ERYTHROCYTE COUNT [3]: 6.23 x10E6/uL
- HEMATOCRIT [3]: 38.77%
- HEMOGLOBIN [3]: 14.67 G/DL
- LEUKOCYTE COUNT [3]: 13.33 x10E3/uL
- LYMPHOCYTE [3]: 87%
- MEAN CORPUSCULAR HEMOGLOBIN [3]: 23.53 pg
- MEAN CORPUSCULAR HEMOGLOBIN CONCENTRATION [3]: 37.83 G/DL
- MEAN CORPUSCULAR VOLUME [3]: 62.27 fL
- MONOCYTE [3]: 2%
- NEUTROPHIL [3]: 10.67%
- NUCLEATED RED BLOOD CELLS [3]: 0.33 /100WBC
- PLATELET COUNT [3]: 1447 x10E3/uL
- ALANINE AMINOTRANSFERASE [3]: 59.33 u/L
- ALBUMIN [3]: 4.2 G/DL
- ALKALINE PHOSPHATASE [3]: 266.67 u/L
- ASPARTATE AMINOTRANSFERASE [3]: 58 u/L
- BLOOD UREA NITROGEN [3]: 14.33 mg/dL
- CARBON DIOXIDE [3]: 21.33 mmol/L
- CHLORIDE [3]: 105 MEQ/L
- CHOLESTEROL [3]: 64.33 mg/dL
- CREATINE PHOSPHOKINASE [3]: 224.67 u/L
- CREATININE [3]: 0.24 mg/dL
- GLUCOSE [3]: 148.67 mg/dL
- LACTATE DEHYDROGENASE [3]: 185.33 u/L
- LIPASE [3]: 11.33 u/L
- PHOSPHORUS [3]: 9.7 mg/dL
- POTASSIUM [3]: 5.17 MEQ/L
- SODIUM [3]: 145.03 MEQ/L
- TOTAL BILIRUBIN [3]: 0.1 mg/dL
- TOTAL PROTEIN [3]: 6 G/DL
- URIC ACID [3]: 1.37 mg/dL
